Measured values: patent publication US20090221690A1, “Pharmaceutical Composition for the Prevention/Treatment of Bone Disorders and a Process for the Preparation Thereof” (COUNCIL OF SCIENTIFIC AND INDUSTRIAL RESEARCH, priority 2006, published 2009)
Values belong to the compound of their own block, whether it stands above or below them.

What was measured:
[1] = tested on: osteoblasts; assay: Quantification of alkaline phosphatase activity in osteoblasts; format: cell-based, Balb/c mouse; design: alkaline phosphatase activity: unit not given here; details: 48 h; for alkaline phosphatase activity: Control 1.87 ± 0.20, Mean±SEM; for expression of alkaline phosphatase vs vehicle control: 10^−11 M to 10^−5 M
Protocol: (§1) Neonatal mouse calvarial cell cultures are prepared as described previously (Endocrinology 139:4743) using slight modification. Briefly, for primary osteoblast cell cultures, frontal and parietal bones from Balb/c mouse neonates (1-3 day old) are digested in 0.1% collagenase/0.1% dispase in α-MEM to obtain 5 sequential digests. The second through fifth digests are combined and grown to confluence at 37° C. and 5% CO2 in air in α-MEM, supplemented with 10% fetal bovine serum (FBS), 2 mM glutamine, 100 U/ml penicillin-streptomycin, Non-essential amino acid solution and sodium pyruvate. The effect of test agents is analysed using the following tests:
p-Nitrophenol phosphate is a colorless substrate which is hydrolysed to colored p-nitrophenol by alkaline phosphatase enzyme. Rate of hydrolysis of p-nitrophenol phosphate is proportional to enzyme present in sample. […] Findings reveal that all the five pure compounds nos.

[2] = tested on: osteoblasts; assay: Osteogenic activity of isolated compounds based on alkaline phosphatase expression, MTT and mineralisation in vitro; format: cell-based
From the text: K051, K052, K054, K080, K082 (isolated from n-butanol soluble fraction) and K095 (isolated from chloroform soluble fraction) (FIGS. 11-15; Tables 10-11).

[3] = tested on: primary osteoblasts; assay: MTT assay for cell proliferation, primary osteoblast cell culture; format: cell-based, Balb/c mouse; details: for Osteoblast cell proliferation (MTT assay) / osteoblast cell proliferation vs vehicle control: 24 h; for Osteoblast cell proliferation (MTT assay): Vehicle 0.60 ± 0.06, Mean±SEM; for osteoblast cell proliferation vs vehicle control: 10^−11 M to 10^−5 M
Protocol: as §1
MTT assay is a common assay used for assessing cell proliferation where tetrazolium salt is reduced to formazone crystals by the mitochondrial dehydrogenase enzyme, which are then dissolved in DMSO. More the number of metabolically active cells more will be the formazone crystals formed. Briefly, osteoblast cells are maintained in α-MEM medium supplemented with 10% FCS and 1% antibiotic solution in 96 well plate. When the cells attain 40% confluency, they are treated in presence or absence of test agents in 2% FCS supplemented media for 24 h. Twenty-four hours thereafter, MTT salt is added to the cells. After 4 h, the formazone crystals formed are dissolved in DMSO and readings taken at wavelength of 570 nm.
This assay is based on the ability of viable cells to reduce tetrazolium salt to form formazone crystals by mitochondrial dehydrogenase enzyme. In MTT assay, osteoblasts are maintained in α-MEM medium supplemented with 10% FCS and 1% antibiotic solution in 96 well plate. When the cells attain 40% confluency, they are treated in presence or absence of test agents in 2% FCS supplemented media for 24 h. Twenty-four hours thereafter, MTT salt is added to the cells. After 4 h, the formazone crystals formed due to reduction of tetrazolium salt by mitochondrial dehydrogenase enzyme are dissolved in DMSO and readings taken at wavelength of 570 nm. All the five pure compounds nos.

[4] = tested on: osteoblasts cultured on sterile bovine bone slices; assay: Mineralisation by osteoblasts cultured on bovine bone slices, Alizarin red staining; format: cell-based, Balb/c mouse; details: osteoblasts on bovine bone slices, 15 days; alone or in combination; FIGS. 14 and 15
Protocol: as §1
(§2) Cells are seeded onto sterile bovine bone slices in 96-well plate and treated with the culture medium containing α-MEM, supplemented with 10% fetal bovine serum, 2 mM glutamine, 100 U/ml penicillin-streptomycin, non-essential amino acid solution, sodium pyruvate, 10 mM P-glycerophosphate and 50 μg/ml ascorbic acid. Culture medium is changed every alternate day. At termination of the culture, cells are washed twice with PBS, fixed in cold 70% ethanol for 1 h and washed once with water and stained with 40 mM Alizarin red (pH 4.7) for 30 min and then washed in PBS to remove excess staining.
as §2, with “In case of osteoblasts” for “Cells are”, “slices, the cells are cultured” for “slices”, “in A-MEM” for “and treated with the culture medium containing α-MEM,”, “p-glycerophosphate” for “P-glycerophosphate”, “acid in the absence or presence of test compounds or their mixtures.” for “acid.”, “culture after 15 days,” for “culture,”

[5] = tested on: osteoblast cells; assay: Quantification of mineralization in osteoblasts (Alizarin red, acetic acid extraction); format: cell-based, Balb/c mouse; details: osteoblasts cultured 7 days; vs vehicle control; FIG. 13
Protocol: as §1
For quantification of mineralization which is measured with increased deposition of nascent calcium in osteoblast cells, cells were cultured in the presence of test compounds for 7 days and stained with Alizarin red. Alizarin red was extracted with acetic acid and the intensity of stain, which is directly proportion to the extent of mineralisation, is read at 405 nm.

[6] = tested on: MCF-7 (human cancer breast) cell line; assay: MTT proliferation assay in MCF-7 cell line; format: cell-based; details: 10 nM and 1 μM; MCF-7 cells; FIG. 2
[7] = tested on: Ishikawa (human uterine glandular epithelial carcinoma) cell line; assay: MTT proliferation assay in Ishikawa cell line; format: cell-based; details: 10 nM and 1 μM; Ishikawa cells; FIG. 2
[8] = tested on: rat fetal bones; assay: Total alkaline phosphatase activity in cultured rat fetal bones; format: cell-based; design: dose or concentration left out as unconfirmed; details: rat fetal bones cultured for 48 h
Protocol: […] The homogenate is centrifuged at 5000 rpm for 10 min at 4° C. The supernatant is used as the enzyme solution. The activity of alkaline phosphatase is measured using ALP kit (Roche, Germany) and p-nitrophenol phosphate as substrate.

Structure (SMILES): COc1cc(O)c2c(=O)c(-c3ccc(O)cc3O)coc2c1 [Compound K051, 2′,4′,5-trihydroxy-7-methoxy isoflavones]
alkaline phosphatase activity ([1]; 10^−5 M): 3.26 ± 0.07 | alkaline phosphatase activity ([1]; 10^−6 M): 3.24 ± 0.09 | alkaline phosphatase activity ([1]; 10^−7 M): 3.23 ± 0.11 | alkaline phosphatase activity ([1]; 10^−8 M): 3.41 ± 0.12 | alkaline phosphatase activity ([1]; 10^−9 M): 3.50 ± 0.07 | alkaline phosphatase activity ([1]; 10^−10 M): 3.59 ± 0.08 | expression of alkaline phosphatase vs vehicle control [1]: increased expression of alkaline phosphatase | alkaline phosphatase activity ([1]; 10^−11 M): 3.63 ± 0.04 | osteogenic activity [2]: promising osteogenic activity | Osteoblast cell proliferation (MTT assay) ([3]; 10^−5 M): 1.32 ± 0.05 | Osteoblast cell proliferation (MTT assay) ([3]; 10^−6 M): 1.34 ± 0.09 | Osteoblast cell proliferation (MTT assay) ([3]; 10^−7 M): 1.33 ± 0.01 | Osteoblast cell proliferation (MTT assay) ([3]; 10^−8 M): 1.32 ± 0.04 | Osteoblast cell proliferation (MTT assay) ([3]; 10^−9 M): 1.03 ± 0.03 | Osteoblast cell proliferation (MTT assay) ([3]; 10^−10 M): 0.92 ± 0.05 | osteoblast cell proliferation vs vehicle control [3]: enhanced osteoblast cell proliferation | Osteoblast cell proliferation (MTT assay) ([3]; 10^−11 M): 0.85 ± 0.05 | intensity of alizarin red staining (rate of new bone formation) [4]: increased intensity of alizarin red staining | mineralisation quantified by alizarin extraction method [5]: enhanced mineralisation

Structure (SMILES): COc1ccc(-c2coc3cc(O)ccc3c2=O)cc1O [Compound K054, 7, 3′-dihydroxy-4′-methoxyisoflavone]
alkaline phosphatase activity ([1]; 10^−5 M): 2.65 ± 0.09 | alkaline phosphatase activity ([1]; 10^−6 M): 3.25 ± 0.07 | alkaline phosphatase activity ([1]; 10^−7 M): 3.32 ± 0.06 | alkaline phosphatase activity ([1]; 10^−8 M): 3.35 ± 0.03 | alkaline phosphatase activity ([1]; 10^−9 M): 3.32 ± 0.09 | alkaline phosphatase activity ([1]; 10^−10 M): 3.22 ± 0.12 | expression of alkaline phosphatase vs vehicle control [1]: increased expression of alkaline phosphatase | alkaline phosphatase activity ([1]; 10^−11 M): 3.01 ± 0.25 | osteogenic activity [2]: promising osteogenic activity | Osteoblast cell proliferation (MTT assay) ([3]; 10^−5 M): 1.40 ± 0.02 | Osteoblast cell proliferation (MTT assay) ([3]; 10^−6 M): 1.24 ± 0.01 | Osteoblast cell proliferation (MTT assay) ([3]; 10^−7 M): 1.26 ± 0.07 | Osteoblast cell proliferation (MTT assay) ([3]; 10^−8 M): 1.24 ± 0.06 | Osteoblast cell proliferation (MTT assay) ([3]; 10^−9 M): 1.06 ± 0.04 | Osteoblast cell proliferation (MTT assay) ([3]; 10^−10 M): 0.88 ± 0.09 | osteoblast cell proliferation vs vehicle control [3]: enhanced osteoblast cell proliferation | Osteoblast cell proliferation (MTT assay) ([3]; 10^−11 M): 0.75 ± 0.06 | intensity of alizarin red staining (rate of new bone formation) [4]: increased intensity of alizarin red staining | mineralisation quantified by alizarin extraction method [5]: enhanced mineralisation

Structure (SMILES): O=C(c1ccc(OCCN2CCCCC2)cc1)c1c(-c2ccc(O)cc2)sc2cc(O)ccc12 [Raloxifene]
proliferation [6]: increased proliferation was observed in only the Ishikawa cell line | proliferation [7]: increased proliferation was observed

Structure (SMILES): O=P([O-])([O-])OC(CO)CO.[Na+].[Na+] [Sodium β-glycerophosphate]
Total alkaline phosphatase activity, percent increase (percent of vehicle control group) [8]: 28% | Total alkaline phosphatase activity, percent increase (percent of vehicle control group) ([8]; listed as sodium p-glycerophosphate): 28%

Second part, led by results:

osteogenic activity [2]: promising osteogenic activity
Structure (SMILES): COc1ccc2c(=O)c(-c3ccc(O)cc3)coc2c1 [Compound K052, 4′-hydroxy, 7-methoxy-isoflavone]
alkaline phosphatase activity ([1]; 10^−5 M): 2.29 ± 0.24 | alkaline phosphatase activity ([1]; 10^−6 M): 3.01 ± 0.09 | alkaline phosphatase activity ([1]; 10^−7 M): 3.05 ± 0.10 | alkaline phosphatase activity ([1]; 10^−8 M): 3.20 ± 0.06 | alkaline phosphatase activity ([1]; 10^−9 M): 3.07 ± 0.10 | alkaline phosphatase activity ([1]; 10^−10 M): 3.01 ± 0.26 | expression of alkaline phosphatase vs vehicle control [1]: increased expression of alkaline phosphatase | alkaline phosphatase activity ([1]; 10^−11 M): 3.17 ± 0.06 | Osteoblast cell proliferation (MTT assay) ([3]; 10^−5 M): 1.19 ± 0.01 | Osteoblast cell proliferation (MTT assay) ([3]; 10^−6 M): 1.86 ± 0.13 | Osteoblast cell proliferation (MTT assay) ([3]; 10^−7 M): 1.70 ± 0.15 | Osteoblast cell proliferation (MTT assay) ([3]; 10^−8 M): 1.73 ± 0.09 | Osteoblast cell proliferation (MTT assay) ([3]; 10^−9 M): 1.70 ± 0.08 | Osteoblast cell proliferation (MTT assay) ([3]; 10^−10 M): 1.43 ± 0.05 | osteoblast cell proliferation vs vehicle control [3]: enhanced osteoblast cell proliferation | Osteoblast cell proliferation (MTT assay) ([3]; 10^−11 M): 1.45 ± 0.23 | relative potency in osteoblast proliferation (MTT) ([3]; order K052, K080, K095, K051, K054): most potent | intensity of alizarin red staining (rate of new bone formation) [4]: increased intensity of alizarin red staining | mineralisation quantified by alizarin extraction method [5]: enhanced mineralisation

osteogenic activity [2]: promising osteogenic activity
Structure (SMILES): COc1ccc(-c2coc3cc(O)ccc3c2=O)cc1 [Compound K080, 7-hydroxy, 4′-methoxy-isoflavone]
alkaline phosphatase activity ([1]; 10^−5 M): 3.45 ± 0.06 | alkaline phosphatase activity ([1]; 10^−6 M): 3.40 ± 0.02 | alkaline phosphatase activity ([1]; 10^−7 M): 3.46 ± 0.06 | alkaline phosphatase activity ([1]; 10^−8 M): 3.30 ± 0.01 | alkaline phosphatase activity ([1]; 10^−9 M): 3.33 ± 0.02 | alkaline phosphatase activity ([1]; 10^−10 M): 3.27 ± 0.08 | expression of alkaline phosphatase vs vehicle control [1]: increased expression of alkaline phosphatase | alkaline phosphatase activity ([1]; 10^−11 M): 3.38 ± 0.02 | Osteoblast cell proliferation (MTT assay) ([3]; 10^−5 M): 1.49 ± 0.03 | Osteoblast cell proliferation (MTT assay) ([3]; 10^−6 M): 1.55 ± 0.05 | Osteoblast cell proliferation (MTT assay) ([3]; 10^−7 M): 1.43 ± 0.09 | Osteoblast cell proliferation (MTT assay) ([3]; 10^−8 M): 1.47 ± 0.02 | Osteoblast cell proliferation (MTT assay) ([3]; 10^−9 M): 1.58 ± 0.09 | Osteoblast cell proliferation (MTT assay) ([3]; 10^−10 M): 1.35 ± 0.03 | osteoblast cell proliferation vs vehicle control [3]: enhanced osteoblast cell proliferation | Osteoblast cell proliferation (MTT assay) ([3]; 10^−11 M): 1.25 ± 0.09 | intensity of alizarin red staining (rate of new bone formation) [4]: increased intensity of alizarin red staining | mineralisation quantified by alizarin extraction method [5]: enhanced mineralisation

osteogenic activity [2]: promising osteogenic activity
Structure (SMILES): COc1ccc(-c2c(C)oc3cc(O)ccc3c2=O)cc1 [Compound K082, 2-methyl, 7-hydroxy, 4′-methoxy isoflavone]
intensity of alizarin red staining (rate of new bone formation) [4]: increased intensity of alizarin red staining | mineralisation quantified by alizarin extraction method [5]: enhanced mineralisation
